Reference: US20230339983A1, “FLUORESCENT COMPOUNDS SPECIFIC FOR PLURIPOTENT STEM CELLS AND REPROGRAMMING-READY CELLS AND METHODS OF USING THE SAME” (Agency for Science, Technology and Research, priority 2018, published 2023)

Test system: reprogrammed ASCs and DPSCs on microcarriers
Assay: Fluorescent probe staining on Cytodex 3 microcarriers (3D culture)
Assay type: cell-based, human
Conditions: 14 and 21 dpn
Procedure: Reprogrammed monolayer ASCs and DPSCs were dissociated into single cell suspension using Dispase. Single cell suspension was transferred into a 6-well Suspension Culture Plate (Greiner bio-one) with Matrigel (Geltrex™, ThermoFisher)-coated Cytodex 3 microcarrier in 4 ml of mTeSR1 supplemented with 10 μM of Rock Inhibitor Y27632 (Calbiochem). The plate was placed on an orbital shaker (110 rpm) for at least 2 hours for cell attachment. Afterward, the plate was transferred to static condition and incubated at 37° C./5% CO2. Media change was carried out with mTeSR1 daily thereafter by aspirating […] of spent medium from the well and adding 4 ml of fresh media (80% medium exchange). On Day 7, the cells on microcarriers were supplemented and maintained with 4 ml of mTeSR1+SMC4 media. 80% medium change was carried out every day.
BDL-E5 probe staining of reprogrammed ASCs and DPSCs on microcarriers was carried out on Day 14 and 21 dpn. The microcarrier culture was washed twice with sterile D-PBS. Prior to staining, media was changed to mTeSR1 with 500 nM BDL-E5 probe and Alexa Fluor® 488 Mouse anti-human TRA-1-60 (200× dilution) (BD Pharmingen™). Cultures were incubated for 1 hour. The cells were then washed twice with D-PBS and replaced with mTeSR1 prior to imaging. Images were taken using Axio Observer Fluorescent Microscope (Carl Zeiss). […]

For COc1cc(F)c(/C=C/c2cc(C)c3n2[B-](F)(F)[N+]2=C(CCC(=O)NCCN(C)C)C=CC2=C3)cc1OC [BDL-E5], the “staining of reprogrammed cells on microcarriers” value (500 nM, 1 h) was “clearly observed” and the “background staining of Cytodex 3 microcarriers themselves” value was “no background BDL-E5 staining”.
